These results are taken from ChEMBL document CHEMBL1136017, “Computational studies on tetrahydropyrimidine-2-one HIV-1 protease inhibitors: improving three-dimensional quantitative structure-activity relationship comparative molecular field analysis models by inclusion of calculated inhibitor- and receptor-based properties” (J Med Chem, 2002).

This assay has as its target Human immunodeficiency virus type 1 protease (Human immunodeficiency virus 1, UniProt Q72874). In words: Inhibitory activity against HIV-1 protease.

Turning to `Cc1ccc(C(=O)Nc2cccc(CN3C(=O)N(Cc4cccc(NC(=O)c5ccc(C)cn5)c4)[C@H](Cc4ccccc4)[C@H](O)[C@H]3CCc3ccccc3)c2)nc1`, affinity was put at a Ki of 0.0794 nM. In other words, the picomolar range.

For `N/C(=N\O)c1cccc(CN2C(=O)N[C@H](CCc3ccccc3)[C@@H](O)[C@H]2Cc2ccccc2)c1`, the Ki is 0.24 nM. With `Nc1cccc(CN2C(=O)N[C@H](CCc3ccccc3)[C@@H](O)[C@H]2Cc2ccccc2)c1`, the affinity corresponds to a Ki of 158 nM. As for `Nc1cccc(CN2C(=O)N[C@H](Cc3ccccc3)[C@H](O)[C@H]2CCc2ccccc2)c1`, the figure is 6.17 nM. `O=C(Nc1cccc(CN2C(=O)N(Cc3cccc(NC(=O)c4nccs4)c3)[C@H](Cc3ccccc3)[C@H](O)[C@H]2CCc2ccccc2)c1)c1nccs1`: the inhibition constant (Ki) is 0.0302 nM.
